# Where two headings read alike, the source gives them in different places.
# Biological target: T1, hM5 (Homo sapiens, UniProt P08912)
# T1 construct: expressed in transfected cells
# T1 sequence (P08912 1-532): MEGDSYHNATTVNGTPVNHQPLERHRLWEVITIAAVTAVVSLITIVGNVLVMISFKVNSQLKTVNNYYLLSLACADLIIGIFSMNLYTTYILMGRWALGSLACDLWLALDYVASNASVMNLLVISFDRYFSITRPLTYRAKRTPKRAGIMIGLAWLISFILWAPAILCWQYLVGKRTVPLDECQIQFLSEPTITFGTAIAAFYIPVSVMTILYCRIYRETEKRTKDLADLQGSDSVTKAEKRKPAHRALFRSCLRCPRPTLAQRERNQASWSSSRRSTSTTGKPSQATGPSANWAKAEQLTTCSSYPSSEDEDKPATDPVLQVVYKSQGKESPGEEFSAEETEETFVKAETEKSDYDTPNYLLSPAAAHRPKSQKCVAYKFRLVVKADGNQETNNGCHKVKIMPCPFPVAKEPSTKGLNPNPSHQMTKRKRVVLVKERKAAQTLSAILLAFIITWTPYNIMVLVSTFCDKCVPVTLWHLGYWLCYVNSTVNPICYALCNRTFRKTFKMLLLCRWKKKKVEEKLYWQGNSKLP
# Experiment: Calcium mobilization concentration-response (IC50 vs EC80 acetylcholine), CHO hM5
# Type: cell-based
# Details: CELL LINE hM5, read-out: IC50
# Procedure, shortened: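 IC50 values derive from percent maximal acetylcholine response after an EC80 ACh addition, measured as kinetic calcium fluorescence (static ratio, max−min). Test compounds were added 140 s before agonist. Cells: stable hM5-CHO in HEPES-buffered HBSS with 2.5 mM probenecid, pH 7.4; ≥3 independent triplicate determinations.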
# [1] = calcium mobilization, EC80 acetylcholine addition
IC50 [1] [nM],IC50 (vs EC80 acetylcholine) [nM],Structure (SMILES)
> 10000,,"Cc1cc2ncnn2cc1C1CCN(S(=O)(=O)c2cnc3n2CCC3)CC1 [Compound 219, 6-(1-((6,7-dihydro-5H-pyrrolo[1,2-a]imidazol-3-yl)sulfonyl)piperidin-4-yl)-7-methyl-[1,2,4]triazolo[1,5-a]pyridine]"
34,,"Cc1cc2nccn2nc1C1CCN(S(=O)(=O)c2cnn(C)c2C)CC1 [Compound 251, 6-(1-((1,5-dimethyl-1H-pyrazol-4-yl)sulfonyl)piperidin-4-yl)-7-methylimidazo[1,2-b]pyridazine]"
1200,,"Cc1cc2ncnn2cc1C1CCN(S(=O)(=O)c2cccc3nn(C)cc23)CC1 [Compound 290, 7-methyl-6-(1-((2-methyl-2H-indazol-4-yl)sulfonyl)piperidin-4-yl)-[1,2,4]triazolo[1,5-a]pyridine]"
> 10000,,"O=S(=O)(c1cnn2c1CCCC2)N1CCC(c2ccncc2)CC1 [Compound 368, 3-((4-(pyridin-4-yl)piperidin-1-yl)sulfonyl)-4,5,6,7-tetrahydropyrazolo[1,5-a]pyridine]"
39,,"Cc1cc2ncnn2cc1C1CCN(S(=O)(=O)c2cc3c(cc2C)OCC3C)CC1 (centres unmarked) [Compound 100, 6-(1-((3,6-dimethyl-2,3-dihydrobenzofuran-5-yl)sulfonyl)piperidin-4-yl)-7-methyl-[1,2,4]triazolo[1,5-a]pyridine]"
> 10000,,"O=S(=O)(c1ccc2c(c1)CCO2)N1CCC(c2ccc3c(c2)OCO3)CC1 [Compound 359, 4-(benzo[d][1,3]dioxol-5-yl)-1-((2,3-dihydrobenzofuran-5-yl)sulfonyl)piperidine]"

# The remaining lines, values behind:
Structure (SMILES),IC50 [1] [nM],IC50 (vs EC80 acetylcholine) [nM]
"Cc1cc(S(=O)(=O)N2CCC(c3cn4ncnc4cc3Cl)CC2)sn1 [Compound 483, 5-((4-(7-chloro-[1,2,4]triazolo[1,5-a]pyridin-6-yl)piperidin-1-yl)sulfonyl)-3-methylisothiazole]",,6
"[2H]C1([2H])CC(c2cn3ncnc3cc2F)CC([2H])([2H])N1S(=O)(=O)c1c(C)nn(C)c1Cl [Compound 475, 6-(1-((5-chloro-1,3-dimethyl-1H-pyrazol-4-yl)sulfonyl)piperidin-4-yl-2,2,6,6-d4)-7-fluoro-[1,2,4]triazolo[1,5-a]pyridine]",,96
"Cc1c(C2CCN(S(=O)(=O)c3cnc4ccccn34)CC2)cn2ncnc2c1F [Compound 348, 8-fluoro-6-(1-(imidazo[1,2-a]pyridin-3-ylsulfonyl)piperidin-4-yl)-7-methyl-[1,2,4]triazolo[1,5-a]pyridine]",50,
"O=S(=O)(c1cnc2ccccn12)N1CCC(c2cn3ncnc3cc2C(F)(F)F)CC1 [Compound 338, 6-(1-(imidazo[1,2-a]pyridin-3-yl)sulfonyl)piperidin-4-yl)-7-(trifluoromethyl_-[1,2,4]triazolo[1,5-a]pyridine]",164,
"Cc1ncc(S(=O)(=O)N2CCC(c3cn4ncnc4c(F)c3C)CC2)o1 [Compound 486, 5-((4-(8-fluoro-7-methyl-[1,2,4]triazolo[1,5-a]pyridin-6-yl)piperidin-1-yl)sulfonyl)-2-methyloxazole]",,318
"[2H]C([2H])([2H])n1cc(S(=O)(=O)N2CCC(c3cn4ncnc4cc3C)CC2)c(C2CC2)n1 [Compound 132, 6-(1-((3-cyclopropyl-1-(methyl-d3)-1H-pyrazol-4-yl)sulfonyl)piperidin-4-yl)-7-methyl-[1,2,4]triazolo[1,5-a]pyridine]",1300,
"Cc1nnc(S(=O)(=O)N2CCC(c3cn4ncnc4cc3C)CC2)s1 [Compound 539, 2-methyl-5-((4-(7-methyl-[1,2,4]triazolo[1,5-a]pyridin-6-yl)piperidin-1-yl)sulfonyl)-1,3,4-thiadiazole]",,31
"[2H]C([2H])([2H])OCc1c(S(=O)(=O)N2CCC(c3cn4ncnc4cc3C)CC2)cnn1C [Compound 440, 6-(1-((5-((methoxy-d3)methyl)-1-methyl-1H-pyrazol-4-yl)sulfonyl)piperidin-4-yl)-7-methyl-[1,2,4]triazolo[1,5-a]pyridine]",,4960
